Laboratory results published in patent publication US20250195536A1, “BICYCLOOCTANE KRAS INHIBITORS” (Incyte Corporation, priority 2023, published 2025).

Columns and labels:
[1] = Caco2 assay (permeability, Papp A-B); format: in vitro ADME; settings: human, Caco-2, absorptive direction (A-B), 50 μM test compound, 4% BSA in receiver
Procedure: Caco-2 cells are grown at 37° C. in an atmosphere of 5% CO2 in DMEM growth medium supplemented with 10% (v/v) fetal bovine serum, 1% (v/v) nonessential amino acids, penicillin (100 U/mL), and streptomycin (100 μg/mL). Confluent cell monolayers are subcultured every 7 days or 4 days for Caco-2 by treatment with 0.05% trypsin containing […]. Caco-2 cells are seeded in 96-well Transwell plates. The seeding density for Caco-2 cells is 14,000 cells/well. DMEM growth medium is replaced every other day after seeding. Cell monolayers are used for transport assays between 22 and 25 days for Caco-2 cells.
Cell culture medium is removed and replaced with HBSS. To measure the TEER, the HBSS is added into the donor compartment (apical side) and receiver compartment (basolateral side). The TEER is measured by using a REMS Autosampler to ensure the integrity of the cell monolayers. Caco-2 cell monolayers with TEER values 300 Ω·cm^2 are used for transport experiments. To determine the Papp in the absorptive direction (A-B), solution of test compound (50 μM) in HBSS is added to the donor compartment (apical side), while HBSS solution with 4% BSA is added to the receiver compartment (basolateral side). The apical volume was 0.075 mL, and the basolateral volume is 0.25 mL. The incubation period is 120 min. at 37° C. in an atmosphere of 5% CO2. At the end of the incubation period, samples from the donor and receiver sides are removed and an equal volume of MeCN is added for protein precipitation. The supernatants are collected after centrifugation (3000 rpm, Allegra X-14R Centrifuge from Beckman Coulter, Indianapolis, IN) for LCMS analysis. The permeability value is determined according to the equation:
Papp(cm/s)=(F*VD)/(SA*MD),
where the flux rate (F, mass/time) is calc. from the slope of cumulative amounts of compound of interest on the receiver side, SA is the surface area of the cell membrane, VD is the donor volume, and MD is the initial amount of the solution in the donor chamber.
The symbol “+” indicates a Caco-2 value of ≤0.5, “++” indicates a Caco-2 value of >0.5 but ≤1; and “+++” indicates a Caco-2 value of >1. “NA” indicates Caco-2 value not available.

KRAS G12V = KRAS G12V (Homo sapiens, UniProt P01116, G12V); test: GDP-GTP exchange assay (KRAS G12V); format: biochemical; settings: bodipy-GDP/GppNHp exchange with SOS1; 3 h incubation after GppNHp-SOS1;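 further: one dagger IC50 up to 100 nM and two daggers above 100 nM up to 1 μM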
Method in brief: (§1)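 IC50 came from a four-parameter fit of fluorescence loss (485/520 nm) as SOS1 (150 nM) swapped bodipy-GDP for GppNHp (500 μM) on 2.5 nM KRAS, final concentrations. Compounds were pre-incubated 4 h at r.t. (pH 7.5 Hepes, 10 mM MgCl2); exchange ran 2 h (G12D) or 3 h (G12V).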

KRAS G12D = KRAS G12D (Homo sapiens, UniProt P01116, G12D); test: GDP-GTP exchange assay (KRAS G12D); format: biochemical; settings: bodipy-GDP/GppNHp exchange with SOS1; 4 h pre-incubation, 2 h reaction;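 further: one dagger IC50 up to 100 nM and two daggers above 100 nM up to 1 μM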
Method in brief: as §1

Sequence of KRAS G12V (P01116 1-188 isoform P01116-2 G12V): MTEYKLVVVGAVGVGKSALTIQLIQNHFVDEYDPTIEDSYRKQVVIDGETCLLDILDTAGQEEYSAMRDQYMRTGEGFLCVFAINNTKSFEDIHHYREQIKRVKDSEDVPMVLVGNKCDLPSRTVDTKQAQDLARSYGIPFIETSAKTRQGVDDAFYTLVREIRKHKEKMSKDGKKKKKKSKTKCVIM
Sequence of KRAS G12D (P01116 1-188 isoform P01116-2 G12D): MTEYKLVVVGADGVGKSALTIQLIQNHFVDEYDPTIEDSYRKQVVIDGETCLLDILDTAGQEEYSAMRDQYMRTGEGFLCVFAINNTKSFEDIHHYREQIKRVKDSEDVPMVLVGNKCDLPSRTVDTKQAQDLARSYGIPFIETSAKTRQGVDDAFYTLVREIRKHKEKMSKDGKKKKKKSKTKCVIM

Structure (SMILES) | Papp A→B at 120 min, 50 μM [1] [×10⁻⁶ cm/s] | G12V_exchange (KRAS_G12V exchange assay IC50) (KRAS G12V) | G12D_exchange (KRAS_G12D exchange assay IC50) (KRAS G12D)
Cc1nc2c(F)c(-c3cccc(Cl)c3Cl)c(CCC#N)cc2c2c1cc([C@H]1[C@H]3C[C@H](CN(c4ccnc(C(=O)N(C)C)c4)C3)N1C(=O)C1CC1)n2[C@H]1[C@H]2CN[C@@H]1C2 [Example 64, 4-((1S,5R,7R)-7-((Ra)-1-((1R,4R,5S)-2-azabicyclo[2.1.1]hexan-5-yl)-8-(2-cyanoethyl)-7-(2,3-dichlorophenyl)-6-fluoro-4-methyl-1H-pyrrolo[3,2-c]quinolin-2-yl)-6-(cyclopropanecarbonyl)-3,6-diazabicyclo[3.2.1]octan-3-yl)-N,N-dimethylpicolinamide] | ≤ 0.5 | † | †
Cc1ccnc(N2C[C@@H]3C[C@H](C2)N(C(=O)C2CC2)[C@H]3c2cc3c(C)nc4c(F)c(-c5cccc(Cl)c5Cl)c(CCC#N)cc4c3n2[C@H]2[C@H]3CN[C@@H]2C3)c1F (atropisomer, axis not shown; (Ra)) [Example 51, 3-((Ra)-1-((1R,4R,5S)-2-azabicyclo[2.1.1]hexan-5-yl)-2-((1S,5R,7R)-6-(cyclopropanecarbonyl)-3-(3-fluoro-4-methylpyridin-2-yl)-3,6-diazabicyclo[3.2.1]octan-7-yl)-7-(2,3-dichlorophenyl)-6-fluoro-4-methyl-1H-pyrrolo[3,2-c]quinolin-8-yl)propanenitrile] | 0.5 to 1 | † | †
Cc1cccnc1N1C[C@@H]2C[C@H](C1)N(C(=O)C1CC1)[C@H]2c1cc2c(C)nc3c(F)c(-c4cccc(Cl)c4Cl)c(CCC#N)cc3c2n1[C@H]1[C@H]2CN[C@@H]1C2 (atropisomer, axis not shown; (Ra)) [Example 48, 3-((Ra)-1-((1R,4R,5S)-2-azabicyclo[2.1.1]hexan-5-yl)-2-((1S,5R,7R)-6-(cyclopropanecarbonyl)-3-(3-methylpyridin-2-yl)-3,6-diazabicyclo[3.2.1]octan-7-yl)-7-(2,3-dichlorophenyl)-6-fluoro-4-methyl-1H-pyrrolo[3,2-c]quinolin-8-yl)propanenitrile] | 0.5 to 1 | † | †
Cc1nc2c(F)c(-c3cccc(Cl)c3Cl)c(CCC#N)cc2c2c1cc([C@H]1[C@H]3C[C@H](CN(c4cc(C(F)(F)F)ccn4)C3)N1C(=O)C1CC1)n2[C@H]1[C@H]2CN[C@@H]1C2 (atropisomer, axis not shown; (Ra)) [Example 39, 3-((Ra)-1-((1R,4R,5S)-2-azabicyclo[2.1.1]hexan-5-yl)-2-((1S,5R,7R)-6-(cyclopropanecarbonyl)-3-(4-(trifluoromethyl)pyridin-2-yl)-3,6-diazabicyclo[3.2.1]octan-7-yl)-7-(2,3-dichlorophenyl)-6-fluoro-4-methyl-1H-pyrrolo[3,2-c]quinolin-8-yl)propanenitrile] | ≤ 0.5 | † | †
Cc1nc2c(F)c(-c3cccc(Cl)c3Cl)c(CCC#N)cc2c2c1cc([C@H]1[C@H]3C[C@H](CN(c4cccc(OC(F)F)c4)C3)N1C(=O)C1CC1)n2[C@H]1[C@H]2CN[C@@H]1C2 (atropisomer, axis not shown; (Ra)) [Example 26, 3-((Ra)-1-((1R,4R,5S)-2-azabicyclo[2.1.1]hexan-5-yl)-2-((1S,5R,7R)-6-(cyclopropanecarbonyl)-3-(3-(difluoromethoxy)phenyl)-3,6-diazabicyclo[3.2.1]octan-7-yl)-7-(2,3-dichlorophenyl)-6-fluoro-4-methyl-1H-pyrrolo[3,2-c]quinolin-8-yl)propanenitrile] | ≤ 0.5 | † | ††
Cc1nc2c(F)c(-c3cccc(Cl)c3Cl)c(CCC#N)cc2c2c1cc([C@H]1[C@H]3C[C@H](CN(c4cscn4)C3)N1C(=O)C1CC1)n2[C@H]1[C@H]2CN[C@@H]1C2 (atropisomer, axis not shown; (Ra)) [Example 93, 3-((Ra)-1-((1R,4R,5S)-2-azabicyclo[2.1.1]hexan-5-yl)-2-((1S,5R,7R)-6-(cyclopropanecarbonyl)-3-(thiazol-4-yl)-3,6-diazabicyclo[3.2.1]octan-7-yl)-7-(2,3-dichlorophenyl)-6-fluoro-4-methyl-1H-pyrrolo[3,2-c]quinolin-8-yl)propanenitrile] | ≤ 0.5 | † | †
Cc1nc2c(F)c(-c3cccc(Cl)c3Cl)c(CCC#N)cc2c2c1cc([C@H]1[C@H]3C[C@H](CN(c4cnn(C(F)F)c4)C3)N1C(=O)C1CC1)n2[C@H]1[C@H]2CN[C@@H]1C2 (atropisomer, axis not shown; (Ra)) [Example 8, 3-((Ra)-1-((1R,4R,5S)-2-azabicyclo[2.1.1]hexan-5-yl)-2-((1S,5R,7R)-6-(cyclopropanecarbonyl)-3-(1-(difluoromethyl)-1H-pyrazol-4-yl)-3,6-diazabicyclo[3.2.1]octan-7-yl)-7-(2,3-dichlorophenyl)-6-fluoro-4-methyl-1H-pyrrolo[3,2-c]quinolin-8-yl)propanenitrile] | ≤ 0.5 | † | †
Cc1csc(N2C[C@@H]3C[C@H](C2)N(C(=O)C2CC2)[C@H]3c2cc3c(C)nc4c(F)c(-c5cccc(Cl)c5Cl)c(CCC#N)cc4c3n2[C@H]2[C@H]3CN[C@@H]2C3)n1 (atropisomer, axis not shown; (Ra)) [Example 90, 3-((Ra)-1-((1R,4R,5S)-2-azabicyclo[2.1.1]hexan-5-yl)-2-((1S,5R,7R)-6-(cyclopropanecarbonyl)-3-(4-methylthiazol-2-yl)-3,6-diazabicyclo[3.2.1]octan-7-yl)-7-(2,3-dichlorophenyl)-6-fluoro-4-methyl-1H-pyrrolo[3,2-c]quinolin-8-yl)propanenitrile] | ≤ 0.5 | † | †
Cc1nc2c(F)c(-c3cccc(Cl)c3Cl)c(CCC#N)cc2c2c1cc([C@H]1[C@H]3C[C@H](CN(c4ncc(C5CC5)s4)C3)N1C(=O)C1CC1)n2[C@H]1[C@H]2CN[C@@H]1C2 (atropisomer, axis not shown; (Ra)) [Example 106, 3-((Ra)-1-((1R,4R,5S)-2-azabicyclo[2.1.1]hexan-5-yl)-2-((1S,5R,7R)-6-(cyclopropanecarbonyl)-3-(5-cyclopropylthiazol-2-yl)-3,6-diazabicyclo[3.2.1]octan-7-yl)-7-(2,3-dichlorophenyl)-6-fluoro-4-methyl-1H-pyrrolo[3,2-c]quinolin-8-yl)propanenitrile] | ≤ 0.5 | † | †
Cc1nc2c(F)c(-c3cccc(Cl)c3Cl)c(CCC#N)cc2c2c1cc([C@H]1[C@H]3C[C@H](CN(c4ccn5nccc5c4)C3)N1C(=O)C1CC1)n2[C@H]1[C@H]2CN[C@@H]1C2 (atropisomer, axis not shown; (Ra)) [Example 71, 3-((Ra)-1-((1R,4R,5S)-2-azabicyclo[2.1.1]hexan-5-yl)-2-((1S,5R,7R)-6-(cyclopropanecarbonyl)-3-(pyrazolo[1,5-a]pyridin-5-yl)-3,6-diazabicyclo[3.2.1]octan-7-yl)-7-(2,3-dichlorophenyl)-6-fluoro-4-methyl-1H-pyrrolo[3,2-c]quinolin-8-yl)propanenitrile] | ≤ 0.5 | † | †
